Test results reported in PMC8645336, “Benchmarking a highly selective USP30 inhibitor for enhancement of mitophagy and pexophagy” (Life Science Alliance, 2021).

Legend:
BAP1 = target: T1, BAP1 (Homo sapiens, UniProt Q92560); experiment: biochemical; set-up: Ubiquigent DUB profiler selectivity panel, remaining enzyme activity as % of control; details: read-out: % of control remaining
T1 sequence (Q92560 1-729): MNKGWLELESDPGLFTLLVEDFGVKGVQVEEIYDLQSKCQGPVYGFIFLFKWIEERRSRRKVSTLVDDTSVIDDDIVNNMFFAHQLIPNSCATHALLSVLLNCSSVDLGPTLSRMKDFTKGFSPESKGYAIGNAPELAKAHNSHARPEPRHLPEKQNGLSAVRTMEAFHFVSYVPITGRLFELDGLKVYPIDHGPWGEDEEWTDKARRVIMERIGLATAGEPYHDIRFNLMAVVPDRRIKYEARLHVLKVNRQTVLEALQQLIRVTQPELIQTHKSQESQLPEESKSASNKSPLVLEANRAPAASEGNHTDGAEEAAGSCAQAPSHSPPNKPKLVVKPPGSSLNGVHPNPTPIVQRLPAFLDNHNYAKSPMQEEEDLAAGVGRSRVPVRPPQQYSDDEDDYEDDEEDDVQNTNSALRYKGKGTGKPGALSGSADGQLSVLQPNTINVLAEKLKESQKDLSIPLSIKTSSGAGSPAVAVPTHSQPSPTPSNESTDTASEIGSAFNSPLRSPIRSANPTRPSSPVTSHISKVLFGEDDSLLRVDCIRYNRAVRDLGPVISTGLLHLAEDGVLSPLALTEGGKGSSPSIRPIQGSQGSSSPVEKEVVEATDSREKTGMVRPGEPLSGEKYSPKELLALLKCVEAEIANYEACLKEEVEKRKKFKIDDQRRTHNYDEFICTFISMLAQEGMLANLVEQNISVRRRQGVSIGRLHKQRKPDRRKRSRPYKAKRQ
In short: (§1)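 In YFP-PRKN-overexpressing hTERT-RPE1 cells, 1 h antimycin A plus oligomycin A (1 μM each) with CMPD-39, then Western blot of TOMM20 ubiquitylation. Target engagement: 2 h compound, then 10 min HA-Ub-PA at 37°C, read as USP30 shift. DUB panel (>40 enzymes) screened at 1-100 μM.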

USP19 = target: T2, USP19 (Homo sapiens, UniProt O94966); experiment: biochemical; set-up: Ubiquigent DUB profiler selectivity panel, remaining enzyme activity as % of control; details: read-out: % of control remaining
T2 sequence (O94966 1-1318): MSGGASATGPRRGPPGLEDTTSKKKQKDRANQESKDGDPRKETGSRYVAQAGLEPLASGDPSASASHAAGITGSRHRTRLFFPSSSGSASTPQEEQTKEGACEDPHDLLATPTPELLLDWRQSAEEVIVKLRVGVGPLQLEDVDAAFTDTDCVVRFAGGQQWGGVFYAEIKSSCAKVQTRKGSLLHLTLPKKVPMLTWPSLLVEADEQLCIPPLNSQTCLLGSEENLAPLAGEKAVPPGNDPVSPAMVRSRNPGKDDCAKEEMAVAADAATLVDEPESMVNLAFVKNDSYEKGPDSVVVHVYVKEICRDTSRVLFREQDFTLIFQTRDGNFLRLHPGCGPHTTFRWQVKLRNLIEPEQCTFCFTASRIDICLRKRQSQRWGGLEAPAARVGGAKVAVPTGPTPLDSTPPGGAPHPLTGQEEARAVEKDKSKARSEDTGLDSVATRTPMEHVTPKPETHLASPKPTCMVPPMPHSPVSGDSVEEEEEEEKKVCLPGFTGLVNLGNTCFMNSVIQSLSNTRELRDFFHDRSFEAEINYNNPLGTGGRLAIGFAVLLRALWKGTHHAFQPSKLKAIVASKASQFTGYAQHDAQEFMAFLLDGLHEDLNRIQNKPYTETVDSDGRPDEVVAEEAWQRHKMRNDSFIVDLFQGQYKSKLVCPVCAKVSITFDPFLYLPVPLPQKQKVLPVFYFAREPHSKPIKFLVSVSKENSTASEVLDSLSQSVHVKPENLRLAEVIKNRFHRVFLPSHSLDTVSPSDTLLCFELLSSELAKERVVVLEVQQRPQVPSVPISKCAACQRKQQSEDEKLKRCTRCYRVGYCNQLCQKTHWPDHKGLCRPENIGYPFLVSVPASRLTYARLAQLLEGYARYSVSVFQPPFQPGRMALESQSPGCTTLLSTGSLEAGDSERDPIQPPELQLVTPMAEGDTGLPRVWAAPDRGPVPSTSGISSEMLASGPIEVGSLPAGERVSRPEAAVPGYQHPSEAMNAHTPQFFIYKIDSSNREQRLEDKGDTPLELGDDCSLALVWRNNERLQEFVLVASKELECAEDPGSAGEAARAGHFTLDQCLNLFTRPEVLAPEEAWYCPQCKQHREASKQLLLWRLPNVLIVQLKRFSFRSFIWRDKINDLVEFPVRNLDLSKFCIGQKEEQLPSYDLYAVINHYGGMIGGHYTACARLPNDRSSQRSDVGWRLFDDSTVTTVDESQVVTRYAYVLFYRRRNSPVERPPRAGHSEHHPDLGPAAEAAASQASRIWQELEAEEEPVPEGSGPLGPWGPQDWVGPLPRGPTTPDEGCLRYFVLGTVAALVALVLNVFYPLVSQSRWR
In short: as §1

`CC(C)(C)NS(=O)(=O)c1ccc(NC(=O)[C@H](Cc2ccccc2)NC(=O)c2ccc(F)cc2)cc1` [compound 39, CMPD-39] showed a remaining activity at 1 µM (BAP1) of 104%, a remaining activity at 10 µM (BAP1) of 89% and a remaining activity at 100 µM (BAP1) of 96.5%. For the same molecule, the remaining activity at 1 µM (USP19) was 107%, the remaining activity at 10 µM (USP19) was 99.7% and the remaining activity at 100 µM (USP19) was 99.8%.
